Results on two compounds are retold here after PMC12136037, “Type II kinase inhibitors that target Parkinson’s disease–associated LRRK2” (Science Advances, 2025).

In experiment [1] the target is T1, LRRK2^RCKW (Homo sapiens, UniProt Q5S007).
T1 construct: LRRK2 R1327 to E2527; His6-Z-tag (TEV cleavable) (N, cleaved yes); host or cells: Sf9 insect cells (baculovirus)
T1 sequence (Q5S007 1327-2527): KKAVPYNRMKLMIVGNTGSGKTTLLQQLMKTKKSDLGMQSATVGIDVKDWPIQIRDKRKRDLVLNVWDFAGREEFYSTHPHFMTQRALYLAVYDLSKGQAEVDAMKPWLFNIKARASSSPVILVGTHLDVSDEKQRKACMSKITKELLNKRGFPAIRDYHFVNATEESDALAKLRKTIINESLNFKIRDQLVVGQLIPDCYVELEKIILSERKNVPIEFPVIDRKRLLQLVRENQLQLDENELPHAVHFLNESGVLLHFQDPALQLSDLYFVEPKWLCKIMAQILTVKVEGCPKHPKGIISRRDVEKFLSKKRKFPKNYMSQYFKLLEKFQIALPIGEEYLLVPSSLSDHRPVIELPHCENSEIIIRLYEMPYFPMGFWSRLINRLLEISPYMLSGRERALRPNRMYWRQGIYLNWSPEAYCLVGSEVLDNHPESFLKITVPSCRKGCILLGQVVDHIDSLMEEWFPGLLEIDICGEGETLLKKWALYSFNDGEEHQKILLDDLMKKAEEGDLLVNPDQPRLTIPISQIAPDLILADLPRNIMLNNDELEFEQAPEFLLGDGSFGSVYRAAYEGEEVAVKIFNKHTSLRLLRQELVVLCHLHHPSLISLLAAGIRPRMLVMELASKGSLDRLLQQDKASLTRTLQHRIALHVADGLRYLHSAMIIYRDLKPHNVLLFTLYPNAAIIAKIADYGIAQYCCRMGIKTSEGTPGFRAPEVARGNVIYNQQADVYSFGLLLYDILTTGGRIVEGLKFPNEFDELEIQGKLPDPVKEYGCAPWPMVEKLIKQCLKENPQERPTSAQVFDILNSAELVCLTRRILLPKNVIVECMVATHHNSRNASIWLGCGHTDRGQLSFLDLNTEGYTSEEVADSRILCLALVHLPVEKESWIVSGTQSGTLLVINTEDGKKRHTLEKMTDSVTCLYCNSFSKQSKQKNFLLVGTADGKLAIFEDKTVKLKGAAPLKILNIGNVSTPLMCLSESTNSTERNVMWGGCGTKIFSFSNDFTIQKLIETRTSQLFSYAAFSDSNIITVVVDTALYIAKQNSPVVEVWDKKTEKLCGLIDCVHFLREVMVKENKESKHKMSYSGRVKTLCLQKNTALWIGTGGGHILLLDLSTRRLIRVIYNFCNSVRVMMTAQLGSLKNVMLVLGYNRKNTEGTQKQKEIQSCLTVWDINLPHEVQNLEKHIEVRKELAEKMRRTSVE
Put plainly: Biochemical LRRK2 activity assay (PhosphoSense, AssayQuant SOX peptide AQT0615). The conditions noted are these: normalized to 0% (no kinase) and 100% (no inhibitor) control, two singlicate columns per compound. In outline:
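Controls lacked protein and compound (0%) or compound only (100%). IC50 derived by nonlinear regression of normalized response versus log[inhibitor].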

Experiment [2] concerns the target T2, LRRK2^KW (Homo sapiens, UniProt Q5S007).
T2 construct: LRRK2 R1847 to E2527; His6-Z-tag (TEV cleavable) (N, cleaved yes); host or cells: Sf9 insect cells (baculovirus)
T2 sequence (Q5S007 1847-2527): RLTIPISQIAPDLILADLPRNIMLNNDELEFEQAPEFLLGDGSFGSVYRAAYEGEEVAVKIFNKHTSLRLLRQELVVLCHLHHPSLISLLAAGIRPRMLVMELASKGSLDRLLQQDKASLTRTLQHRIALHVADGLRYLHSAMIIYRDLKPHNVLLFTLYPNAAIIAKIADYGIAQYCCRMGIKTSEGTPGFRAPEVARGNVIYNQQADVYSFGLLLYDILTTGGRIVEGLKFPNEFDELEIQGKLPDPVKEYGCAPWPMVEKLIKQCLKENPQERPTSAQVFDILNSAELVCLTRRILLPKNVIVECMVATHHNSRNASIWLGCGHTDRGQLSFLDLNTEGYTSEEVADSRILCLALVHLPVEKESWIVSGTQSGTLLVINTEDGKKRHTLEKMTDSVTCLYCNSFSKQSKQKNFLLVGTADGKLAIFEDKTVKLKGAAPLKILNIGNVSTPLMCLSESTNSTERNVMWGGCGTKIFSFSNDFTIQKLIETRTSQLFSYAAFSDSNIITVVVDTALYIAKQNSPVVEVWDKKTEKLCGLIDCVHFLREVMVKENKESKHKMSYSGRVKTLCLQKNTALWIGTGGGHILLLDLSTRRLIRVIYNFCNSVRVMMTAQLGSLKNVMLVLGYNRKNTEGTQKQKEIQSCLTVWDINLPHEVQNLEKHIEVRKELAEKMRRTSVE
Put plainly: DSF thermal stabilization of LRRK2^KW. The experiment is classed as binding. The conditions noted are these: DSF, LRRK2^KW, 10 μM inhibitor. A digest of the protocol:
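DSF on 4 μM LRRK2^KW in 20 mM Hepes pH 7.4, 150 mM NaCl, 0.5 mM TCEP, 0.5% glycerol, 20 μM GDP, 2.5 mM MgCl2 with SYPRO Orange; inhibitor at 10 μM. Tm was taken as the minimum of the first derivative of fluorescence versus temperature, relative to control.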

The structures appear in SMILES notation. Where “and” joins values, the source holds several entries; their conditions need not be identical. Identical values can stand only once.

For the compound `Cc1ccc(C(=O)Nc2ccc(CN3CCN(C)CC3)c(C(F)(F)F)c2)cc1C#Cc1cnc2cccnn12` [Ponatinib, reference compound], the “normalized response (LRRK2 activity)” value in experiment [1] (log[inhibitor(mol)] -6.30103) was 56.5539% and 57.6737%; in experiment [1] (log[inhibitor(mol)] -6.90309), 39.5492% and 29.1129%; in experiment [1] (log[inhibitor(mol)] -7.30103), 59.9414% and 56.1669%; in experiment [1] (log[inhibitor(mol)] -7.60206), 77.794% and 52.662%; in experiment [1] (log[inhibitor(mol)] -8.09691) it was 99.8669% and 100.13%; in experiment [1] (log[inhibitor(mol)] -8.61979) it was 102.911%. Besides, the “normalized response (LRRK2 activity)” value in experiment [1] (log[inhibitor(mol)] -9.09691) is 103.335% and 101.393%; in experiment [1] (log[inhibitor(mol)] -9.39794), 103.789% and 105.568%. Further, in experiment [2], the “∆Tm (K)” value is recorded as 13.0 K.

Consider `CNC(=O)c1cc(Oc2ccc(NC(=O)Nc3cc(C(C)(C)C)nn3-c3ccc4ncccc4c3)c(F)c2)ccn1` [Rebastinib, reference compound], for which the “normalized response (LRRK2 activity)” value was -10.5496% and -14.6792% in experiment [1] (log[inhibitor(mol)] -5.12494); -7.259% and -5.877% in experiment [1] (log[inhibitor(mol)] -5.60206); 2.212% and 3.3144% in experiment [1] (log[inhibitor(mol)] -6.30103); 28.2838% and 28.5032% in experiment [1] (log[inhibitor(mol)] -6.90309); 54.9753% and 51.2954% in experiment [1] (log[inhibitor(mol)] -7.30103); 71.3236% and 68.1209% in experiment [1] (log[inhibitor(mol)] -7.60206). Also, the “normalized response (LRRK2 activity)” value in experiment [1] (log[inhibitor(mol)] -8.09691) is 89.2569% and 91.5273%; in experiment [1] (log[inhibitor(mol)] -8.61979) it was 98.1961% and 113.387%; in experiment [1] (log[inhibitor(mol)] -9.09691) it was 109.62% and 109.044%; in experiment [1] (log[inhibitor(mol)] -9.39794) it was 108.15% and 116.184%. In experiment [2], the “∆Tm (K)” value is 18.5 K and 18.5 ± 0.7 K.
